Results from patent US6953812B2, “Glucagon antagonists/inverse agonists” (Novo Nordisk, Inc., priority 2000, dated 2005).
Where two headings read alike, the source gives them in different places.

Legend:
human glucagon receptor = target: T1, human glucagon receptor (Homo sapiens, UniProt P47871); test: Glucagon Binding Assay (II); settings: membranes of BHK cells transfected with human glucagon receptor, 125I-glucagon, SPA; read-out: Glu Bd Assay (II) IC50
T1 construct: expressed in transfected cells; host or cells: BHK (baby hamster kidney) cells, membrane preparation
Procedure: Glucagon Binding Assay (II)
BHK (baby hamster kidney cell line) cells are transfected with the human glucagon receptor and a membrane preparation of the cells is prepared.
All steps in the membrane preparation are kept on ice or performed at 4° C. BHK cells are harvested and centrifuged. The pellet is resuspended in homogenisation buffer (25 mM HEPES, pH=7.4, 2.5 mM CaCl2, 1.0 mM MgCl2, 250 mg/L bacitracin, 0.1 mM Pefabloc), homogenised 2×10 sec using Polytron 10-35 homogenizer (Kinematica) and added the same amount of homogenisation buffer as used for resuspension. After centrifugation (15 min at 2000×g) the supernatant is transferred to cold centrifuge tubes and centrifuged for 45 min at 40.000×g. The pellet is resuspended in homogenisation buffer, homogenised 2×10 sec (Polytron) and additional homogenisation buffer is added. The suspension is centrifuged for 45 min at 40.000×g and the pellet is resuspended in resuspension buffer (25 mM HEPES, pH=7.4, 2.5 mM CaCl2, 1.0 mM MgCl2) and homogenised 2×10 sec. (Polytron). […] Stabilisation buffer (25 mM HEPES, pH=7.4, 2.5 mM CaCl2, 1.0 mM MgCl2, 1% bovine serum albumin, 500 mg/L bacitracin, 2.5 M sucrose) is added and the membrane preparation is stored at −80° C.
(§1) The glucagon binding assay is carried out in opti plates (Polystyrene Microplates, Packard). 50 μL assay buffer (25 mM HEPES, pH=7.5, 2.5 mM CaCl2, 1.0 mM MgCl2, 0.003% Tween-20, 0.005% bacitracin, 0.05% sodium azide) and 5 μL glucagon or test compound (in DMSO) are added to each well. […] Finally 50 μL WGA beads containing 1 mg beads are transferred to the well. The opti plates are incubated for 4 hours on a shaker and then settled for 8-48 hours. The opti plates are counted in a Topcounter. Non-specific binding is determined with 500 nM of glucagon.

human GIP receptor = target: T2, human GIP receptor (Homo sapiens, UniProt P48546); test: GIP Binding Assay
T2 construct: expressed in transfected cells; host or cells: BHK (baby hamster kidney) cells, membrane preparation
T2 sequence (P48546 22-466): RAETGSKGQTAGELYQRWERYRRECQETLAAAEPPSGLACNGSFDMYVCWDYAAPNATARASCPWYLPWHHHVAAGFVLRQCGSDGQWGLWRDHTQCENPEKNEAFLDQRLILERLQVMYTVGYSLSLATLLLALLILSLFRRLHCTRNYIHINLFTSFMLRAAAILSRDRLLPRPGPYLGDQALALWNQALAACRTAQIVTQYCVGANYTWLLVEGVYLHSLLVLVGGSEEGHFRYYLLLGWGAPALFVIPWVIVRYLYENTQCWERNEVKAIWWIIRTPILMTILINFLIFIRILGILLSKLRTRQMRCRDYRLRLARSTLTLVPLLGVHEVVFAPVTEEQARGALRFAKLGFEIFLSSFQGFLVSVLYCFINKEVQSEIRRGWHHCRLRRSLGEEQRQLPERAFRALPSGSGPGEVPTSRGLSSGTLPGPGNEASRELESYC
Procedure: BHK (baby hamster kidney cell line) cells are transfected with the human GIP receptor and a membrane preparation of the cells is prepared.
All steps in the membrane preparation are kept on ice or performed at 4° C. BHK cells are harvested and centrifuged. The pellet is resuspended in homogenisation buffer (25 mM) HEPES, pH=7.4, 2.5 mM CaCl2, 1.0 mM MgCl2, 250 mg/L bacitracin, 0.1 mM Pefabloc), homogenised 2×10 sec using Polytron 10-35 homogenizer (Kinematica) and added the same amount of homogenisation buffer as used for resuspension. After centrifugation (15 min at 2000×g) the supernatant is transferred to cold centrifuge tubes and centrifuged for 45 min at 40.000×g. The pellet is resuspended in homogenisation buffer, homogenised 2×10 sec (Polytron) and additional homogenisation buffer is added. The suspension is centrifuged for 45 min at 40.000×g and the pellet is resuspended in resuspension buffer (25 mM HEPES, pH=7.4, 2.5 mM CaCl2, 1.0 mM MgCl2) and homogenised 2×10 sec. (Polytron). […] Stabilisation buffer (25 mM HEPES, pH=7.4, 2.5 mM CaCl2, 1.0 mM MgCl2, 1% bovine serum albumin, 500 mg/L bacitracin, 2.5 M sucrose) is added and the membrane preparation is stored at −80° C.
as §1, with “The GIP” for “The glucagon”, “μL GIP” for “μL glucagon”, “for 3.5” for “for 4”, “a Top-counter.” for “a Topcounter.”, “of GIP.” for “of glucagon.”

[1] = membranes of BHK cells transfected with human GIP receptor, 125I-GIP, SPA, read-out: GIP Bd Assay IC50

T1 sequence (P47871 26-477): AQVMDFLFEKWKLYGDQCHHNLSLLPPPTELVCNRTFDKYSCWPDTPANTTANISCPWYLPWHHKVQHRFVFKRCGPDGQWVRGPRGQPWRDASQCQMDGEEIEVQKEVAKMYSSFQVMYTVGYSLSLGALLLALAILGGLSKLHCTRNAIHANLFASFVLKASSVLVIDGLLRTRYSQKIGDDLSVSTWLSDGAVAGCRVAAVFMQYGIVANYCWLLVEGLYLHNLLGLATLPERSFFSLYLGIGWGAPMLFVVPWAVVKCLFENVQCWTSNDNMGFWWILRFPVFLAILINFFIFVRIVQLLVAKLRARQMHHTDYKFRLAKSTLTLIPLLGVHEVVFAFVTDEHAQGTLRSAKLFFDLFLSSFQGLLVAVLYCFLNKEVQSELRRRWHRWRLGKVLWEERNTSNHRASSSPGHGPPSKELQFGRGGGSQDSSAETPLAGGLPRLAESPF

| IC50 (human glucagon receptor) | IC50 (human GIP receptor; [1]) | Compound | IC50 (human GIP receptor) |
| --- | --- | --- | --- |
| 390 nM | > 3000 nM | CC(NC(=O)N(Cc1ccc(C(=O)NC[C@@H](O)C(=O)O)cc1)c1ccc(C2CCCCC2)cc1)c1ccc(Br)cc1 (mixture of isomers) [Example 54, 3-{4-[3-[1(RS)-(4-Bromophenyl)ethyl]-1-(4-cyclohexylphenyl)ureidomethyl]benzoylamino}-2(R)-hydroxypropionic acid] |  |
| 29 nM | 701 nM | COc1cc(NC(=O)N(Cc2ccc(C(=O)NC[C@@H](O)C(=O)O)cc2)c2ccc(C3CCCCC3)cc2)cc(C(F)(F)F)c1 [Example 1, (R)-3-{4-[1-(4-Cyclohexylphenyl)-3-(3methoxy-5-trifluoromethylphenyl)ureidomethyl]benzoylamino}-2-hydroxypropionic acid] |  |
| 12 nM | 269 nM | O=C(NC[C@@H](O)C(=O)O)c1ccc(CN(C(=O)Nc2cc(C(F)(F)F)cc(C(F)(F)F)c2)c2ccc(C3CCCCC3)cc2)cc1 [Example 2, (R)-3-{4-[3-(3,5-Bis(trifluoromethyl)phenyl)-1-(4-cyclohexylphenyl)ureidomethyl]benzoylamino}-2-hydroxypropionic acid] |  |
| 18 nM | 653 nM | O=C(NC[C@@H](O)C(=O)O)c1ccc(CN(C(=O)Nc2cccc(Br)c2)c2ccc(C3CCCCC3)cc2)cc1 [Example 3, (R)-3-{4-[3-(3-Bromophenyl)-1-(4-cyclohexylphenyl)ureidomethyl]benzoylamino}-2-hydroxypropionic acid] |  |
| 23 nM | 124 nM | O=C(NC[C@@H](O)C(=O)O)c1ccc(CN(C(=O)Nc2ccc(OC(F)(F)F)cc2)c2ccc(C3CCCCC3)cc2)cc1 [Example 4, (R)-3-{4-[1-(4-Cyclohexylphenyl)-3-(4-trifluoromethoxyphenyl)ureidomethyl]benzoylamino}-2-hydroxypropionic acid] |  |
| 26 nM | 519 nM | O=C(NC[C@@H](O)C(=O)O)c1ccc(CN(C(=O)Nc2cccc(C(F)(F)F)c2)c2ccc(C3CCCCC3)cc2)cc1 [Example 5, (R)-3-{4-[1-(4-Cyclohexylphenyl)-3-(3-trifluoromethylphenyl)ureidomethyl]benzoylamino}-2-hydroxypropionic acid] |  |
| 10 nM | 294 nM | O=C(NC[C@@H](O)C(=O)O)c1ccc(CN(C(=O)Nc2cc(F)cc(C(F)(F)F)c2)c2ccc(C3CCCCC3)cc2)cc1 [Example 6, (R)-3-{4-[1-(4-Cyclohexylphenyl)-3-(3-fluoro-5-trifluoromethylphenyl)ureidomethyl]benzoylamino}-2-hydroxypropionic acid] |  |
| 14 nM | 316 nM | N#Cc1cc(NC(=O)N(Cc2ccc(C(=O)NC[C@@H](O)C(=O)O)cc2)c2ccc(C3CCCCC3)cc2)cc(C(F)(F)F)c1 [Example 8, (R)-3-{4-[3-(3-Cyano-5-trifluoromethylphenyl)-1-(4-cyclohexylphenyl)ureidomethyl]benzoylamino}-2-hydroxypropionic acid] |  |
| 41 nM | 914 nM | O=C(NC[C@@H](O)C(=O)O)c1ccc(CN(C(=O)Nc2cccc(Br)c2)c2ccc(C3=CCCCC3)cc2)cc1 [Example 11, (R)-3-{4-[3-(3-Bromophenyl)-1-(4-cyclohex-1-enylphenyl)ureidomethyl]benzoylamino}-2-hydroxypropionic acid] |  |
| 10 nM | 204 nM | O=C(NC[C@@H](O)C(=O)O)c1ccc(CN(C(=O)Nc2cc(Br)cc(C(F)(F)F)c2)c2ccc(C3CCCCC3)cc2)cc1 [Example 12, (R)-3-{4-[3-(3-Bromo-5-trifluoromethylphenyl)-1-(4-cyclohexylphenyl)ureidomethyl]benzoylamino}-2-hydroxypropionic acid] |  |

Continued, compound first:

| Compound | IC50 (human glucagon receptor) | IC50 (human GIP receptor; [1]) | IC50 (human GIP receptor) |
| --- | --- | --- | --- |
| CC(C)(C)c1ccc(N(Cc2ccc(C(=O)NCC(O)C(=O)O)cc2)C(=O)Nc2ccc(OC(F)(F)F)cc2)cc1 (racemic) [Example 16, (RS)-3-{4-[1-(4-tert-Butylphenyl)-3-(4-trifluoromethoxyphenyl)ureidomethyl]benzoylamino}-2-hydroxypropionic acid] | 61 nM | 205 nM |  |
| O=C(NCC(O)C(=O)O)c1ccc(CN(C(=O)Nc2cc(Cl)cc(Cl)c2)c2ccc(C3=CCCCC3)cc2)cc1 (racemic) [Example 17, (RS)-3-{4-[1-(4-Cyclohex-1-enylphenyl)-3-(3,5-dichlorophenyl)ureidomethyl]benzoylamino}-2-hydroxypropionic acid] | 22 nM |  | 448 nM |
| O=C(NCC(F)C(=O)O)c1ccc(CN(C(=O)Nc2cc(Cl)cc(Cl)c2)c2ccc(C3=CCCCC3)cc2)cc1 (racemic) [Example 23, (RS)-3-{4-[1-(4-Cyclohex-1-enylphenyl)3-(3,5-dichlorophenyl)ureidomethyl]benzoylamino}-2-fluoropropionic acid] | 40 nM | 516 nM |  |
| N#Cc1cc(NC(=O)N(Cc2ccc(C(=O)NC[C@@H](O)C(=O)O)cc2)c2ccc(C3=CCCCC3)cc2)cc(C(F)(F)F)c1 [Example 7, (R)-3-{4-[3-(3-Cyano-5-trifluoromethylphenyl)-1-(4-cyclohex-1-enylphenyl)ureidomethyl]benzoylamino}-2-hydroxypropionic acid] | 26 nM | 292 nM |  |
| O=C(NC[C@@H](O)C(=O)O)c1ccc(CN(C(=O)Nc2cc(Br)cc(C(F)(F)F)c2)c2ccc(C3=CCCCC3)cc2)cc1 [Example 9, (R)-3-{4-[3-(3-Bromo-5-trifluoromethylphenyl)-1-(4-cyclohex-1-enylphenyl)ureidomethyl]benzoylamino}-2-hydroxypropionic acid] | 11 nM | 285 nM |  |
| COc1cc(NC(=O)N(Cc2ccc(C(=O)NC[C@@H](O)C(=O)O)cc2)c2ccc(C3=CCCCC3)cc2)cc(C(F)(F)F)c1 [Example 10, (R)-3-{4-[1-(4-Cyclohex-1-enylphenyl)-3-(3-methoxy-5-trifluoromethylphenyl)ureidomethyl]benzoylamino}-2-hydroxypropionic acid] | 19 nM | 294 nM |  |
| Cc1cc(NC(=O)N(Cc2ccc(C(=O)NC[C@@H](O)C(=O)O)cc2)[C@H]2CC[C@H](C(C)(C)C)CC2)cc(C(F)(F)F)c1 [Example 15, Trans-(R)-3-{4-[3-(3-methyl-5-trifluoromethylphenyl)-1-(4-tert-butylcyclohexyl)ureidomethyl]benzoylamino}-2-hydroxypropionic acid] | 35 nM | 395 nM |  |
| O=C(NC[C@H](O)C(=O)O)c1ccc(CN(C(=O)Nc2cc(Cl)cc(Cl)c2)c2ccc(C3=CCCCC3)cc2)cc1 [Example 18, (S)-3-{4-[1-(4-Cyclohex-1-enylphenyl)-3-(3,5-dichlorophenyl)ureidomethyl]benzoylamino}-2-hydroxypropionic acid] | 177 nM | > 1500 nM |  |
